Legend:
[1] = biological target: T1, AdipoR1 (Homo sapiens, UniProt Q96A54); experiment: Measurement of AMPK phosphorylation ability (Assay 1), HEK 293T cells, Western blotting; format: cell-based; design: HEK 293T cells (ATCC; CRL-3216, medium; host or cells: HEK 293T; settings: 10 minutes
T1 sequence (Q96A54 1-375): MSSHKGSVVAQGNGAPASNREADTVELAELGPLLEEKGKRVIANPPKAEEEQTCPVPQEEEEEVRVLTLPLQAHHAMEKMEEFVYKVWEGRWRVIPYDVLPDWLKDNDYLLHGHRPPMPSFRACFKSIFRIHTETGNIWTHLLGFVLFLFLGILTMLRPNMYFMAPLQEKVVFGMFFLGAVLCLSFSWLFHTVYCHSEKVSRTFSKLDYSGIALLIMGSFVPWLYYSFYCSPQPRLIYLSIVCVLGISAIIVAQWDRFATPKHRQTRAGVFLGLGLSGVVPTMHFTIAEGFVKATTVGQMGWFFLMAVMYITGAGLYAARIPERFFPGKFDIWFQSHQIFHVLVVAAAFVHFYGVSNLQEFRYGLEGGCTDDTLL
Description: The AMPK phosphorylation ability of the respective compounds according to the present invention was measured by using differentiated C2C12 cells or HEK 293T cells.
HEK 293T cells (ATCC; CRL-3216, medium; DMEM, Fetal Bovine Serum (FBS)) were cultured in a 12- or 24-well plate until they reached 100% confluency (37° C., 5% CO2).
After starvation, a test compound listed in Tables 10 and 11 (concentration: 25 μM, 50 μM) was added thereto, and after 10 minutes, the medium was discarded and the plate was frozen with liquid nitrogen.
To the 12- or 24-well cell plate which had been frozen was added 100 or 150 μL of Cell lysis buffer pH 7.4 (50 mM HEPES (pH 7.4), 2 mM sodium orthovanadate, 10 mM sodium pyrophosphate, 10 mM NaF, 2 mM EDTA, 2 mM EGTA, 0.1% (v/v) NP-40, 0.2 mM PMSF), and the cells were scraped off with a cell scraper, suspended and transferred into a micro centrifugal tube. And then, the cells were ultrasonically crushed (1 second×3 times) with a sonicator. Centrifugation was performed at 4° C. at 15,000 rpm for 15 minutes, and the supernatant was recovered into a new tube.
To 100 μL of the supernatant was added 25 μL of 5× sample buffer (280 mM Tris-HCl (pH 6.9), 40% glycerol, 10% (3-mercaptoethanol, 13% SDS, a small amount of bromophenol blue) and mixed together. The rest of the supernatant was used for protein quantification, and the protein concentrations were uniformed by adding 1× sample buffer depending on the concentration of each sample.
An electrophoresis chamber was filled with 1× SDS buffer (25 mM Tris-HCl, 250 mM glycine, 0.1% SDS), and the sample was applied to a well of polyacrylamide gel. Electrophoresis was performed until the bromophenol blue in the sample reached to the bottom of the gel.
A filter paper was soaked in 1× Transfer buffer sufficiently, above which the PVDF membrane and the gel after electrophoresis were stacked in this order, and thereabove a filter paper which had been soaked in 1× Transfer buffer sufficiently was further stacked, from which an air was removed and the resultant was set in semi-dry type transfer apparatus and transferred (7V, 35 minutes).
An unnecessary portion of the blotted membrane was cutoff, and the rest was immediately soaked in blocking buffer (5% skimmed milk in Rinse buffer), and shaken at room temperature at 40 rpm for 3 hours.
After blocking, the membrane was transferred into Rinse buffer, and washed at room temperature for 10 minutes while shaking. The membrane was soaked in a primary antibody solution (AMPK alpha Antibody (Cell signaling; #2532) 1/1,000 in Rinse buffer, Phospho-AMPK alpha (Thr172) (40H9) antibody (Cell signaling; #2535) 1/1,000 in Rinse buffer), and shaken at 4° C. at 40 rpm overnight.
The membrane was soaked in a secondary antibody solution (goat anti-rabbit IgG-HRP Antibody (Santa Cruz; sc-2030) 1/2,000 in Rinse buffer), and shaken at room temperature at 40 rpm for 1 hour.
After the membrane was washed for 45 minutes in the same way as after the primary antibody reaction, the membrane was soaked in a chemiluminescent reaction solution (ECL Western Blotting Detection Reagents, GE Healthcare) for about 1 minute. An excess of the reaction solution was removed, and then the membranes were arranged on a transparent film and sandwiched with it, with which an X-ray film was exposed in a darkroom (for about several seconds to 60 seconds) to develop the film.
The X-ray film was scanned to take the image, for which the band was measured by using the image analysis software “Image J” to determine the respective amounts of pAMPK and AMPK.

[2] = biological target: T1, AdipoR1; experiment: Measurement of AMPK phosphorylation ability (Assay 2), HEK 293T cells with unrelated or AdipoR1 siRNA; format: cell-based; design: HEK 293T cells (ATCC; CRL-3216, medium; host or cells: HEK 293T
Description: HEK 293T cells (medium; DMEM, 10% FBS) were cultured in a 24-well plate until they reached 60% confluency (37° C., 5% CO2).
First, 1 μL of Lipofectamine RNAiMAX and 50 μL of OPTI-MEM were mixed, and then 5 μM siRNA (sense siRNA sequence: […]tt (SEQ ID NO: 1)) and 50 μL of OPTI-MEM were mixed and the resultants were left to stand at room temperature for 5 minutes. And then, the 1 μL Lipofectamine RNAiMAX/50 μL OPTI-MEM and the 5 μM siRNA/50 μL OPTI-MEM were mixed, and the resultant was left to stand at room temperature for 10 minutes, which was added to the cells.
After 5 minutes, the medium (DMEM, 10% FBS) was replaced, and after starvation on the next day, a test compound listed in Tables 10 and 11 was added thereto. After 10 minutes, the medium was discarded and the plate was frozen with liquid nitrogen.
The respective amounts of pAMPK and AMPK were determined in the same way as in the above Assay 1.

Compound | pAMPK/AMPK (%) ([1]; 25 μM) | pAMPK/AMPK (%) ([1]; 50 μM) | pAMPK/AMPK (ratio) siRNA, AdipoR1 siRNA [2] [ratio] | pAMPK/AMPK (ratio) siRNA, unrelated siRNA [2] [ratio]
COc1ccc(OCC(=O)NC2CCN(Cc3ccc(Cl)c(Cl)c3)CC2)cc1 [Compound 37] | 83.83 | 80.12 | 2.69 | 3.11
COc1cc(C(C)=O)ccc1OCC(=O)NC1CCN(Cc2ccc(Cl)c(Cl)c2)CC1 [Compound 15] | 88.71 | 88.18 | 3.49 | 3.27
O=C(NCCC(=O)N1CCN(Cc2cccc(O)c2)CC1)c1ccc2ccccc2c1 [Compound 70] | 84.71 | 88.96 | 2.46 | 2.43
O=C(NCCC(=O)N1CCN(Cc2cccc(OC(F)(F)F)c2)CC1)c1ccc([N+](=O)[O-])cc1 [Compound 69] | 80.04 | 100.79 | 4.03 | 5.28
O=C(COc1ccc(Oc2ccccn2)cc1)NC1CCN(Cc2ccc(F)cc2)CC1 [Compound 48] | 80.04 | 85.28 | 3.16 | 3.42
O=C(COc1ccc(C(F)(F)F)cc1)NC1CCN(C(=O)c2ccccc2F)CC1 [Compound 34] | 80.64 | 80.50 | 2.01 | 2.32
O=C(COc1ccc(F)cc1)NC1CCN(Cc2ccc(Cl)c(Cl)c2)CC1 [Compound 32] | 88.09 | 91.40 | 4.14 | 3.38
O=C(COc1ccc(C(=O)c2ccc(Cl)cc2)cc1)NC1CCN(Cc2ccccc2)CC1 [Compound 11] | 83.12 | 102.94 | 3.75 | 2.58
Cc1ccccc1CN1CCC(NC(=O)COc2ccc(Oc3ccccn3)cc2)CC1 [Compound 46] | 80.93 | 80.11 | 2.74 | 2.58
CCc1ccc(OCC(=O)NC2CCN(C(C)c3ccccc3)CC2)cc1 (centres unmarked) [Compound 31] | 80.60 | 80.60 | 2.61 | 3.17
CC(c1ccccc1)N1CCC(NC(=O)COc2ccc(Oc3ccccn3)cc2)CC1 (centres unmarked) [Compound 47] | 80.31 | 80.39 | 2.44 | 2.78
Cc1ccc(OCC(=O)NC2CCN(Cc3ccc(Cl)c(Cl)c3)CC2)cc1 [Compound 30] | 122.70 | 89.75 | 2.35 | 2.49
NC(=O)c1ccc(OCC(=O)NC2CCN(Cc3ccc(Cl)c(Cl)c3)CC2)cc1 [Compound 19] | 83.61 | 95.02 | 3.75 | 3.88
CCOc1ccc(OCC(=O)NC2CCN(Cc3cccc(C(F)(F)F)c3)CC2)cc1 [Compound 40] | 80.20 | 91.33 | 2.25 | 2.25
CC(C)(C)c1ccc(C(=O)NCCC(=O)N2CCN(Cc3cccc4cccnc34)CC2)cc1 [Compound 53] | 91.44 | 81.80 | 2.04 | 2.26
COc1ccc(CN2CCC(NC(=O)COc3ccc(C(F)(F)F)cc3)CC2)cc1F [Compound 35] | 80.77 | 83.74 | 2.01 | 3.38
O=C(COc1ccc(Oc2ccccc2)cc1)NC1CCN(Cc2ccccc2)CC1 [Compound 36] | 80.42 | 84.19 | 2.56 | 2.52
O=C(COc1ccc(C(=O)c2ccccc2)cc1)NC1CCN(Cc2ccc(Cl)cc2)CC1 [Compound 12] | 106.36 | 82.93 | 2.47 | 2.51
O=C(COc1ccc(Cl)cc1)NC1CCN(Cc2ccc(Cl)c(Cl)c2)CC1 [Compound 33] | 106.31 | 84.10 | 2.63 | 2.88
CC(C)c1ccc(CN2CCN(C(=O)CCNC(=O)c3ccc([N+](=O)[O-])cc3)CC2)cc1 [Compound 64] | 80.29 | 83.01 | 3.57 | 4.86
O=C(NCCC(=O)N1CCN(Cc2cccc(O)c2)CC1)c1ccc(Br)cc1 [Compound 56] | 49.23 | 40.38 |  | 
CCCOc1ccc(OCC(=O)NC2CCN(C(C)c3ccccc3)CC2)cc1 (centres unmarked) [Compound 43] | 77.13 | 82.95 |  | 
O=C(COc1ccc(Oc2ccccn2)cc1)NC1CCN(Cc2ccccc2)CC1 [Compound 45] | 67.44 | 82.01 |  | 
CC(C)c1ccc(OCC(=O)NC2CCN(C(C)c3ccccc3)CC2)cc1 (centres unmarked) [Compound 2] | 77.78 | 90.47 |  | 
Cc1ccc(C(=O)N2CCC(NC(=O)COc3ccc(C(F)(F)F)cc3)CC2)cc1 [Compound 8] | 77.49 | 72.23 |  | 
CC(c1ccccc1)N1CCC(NC(=O)COc2ccc(C(F)(F)F)cc2)CC1 (centres unmarked) [Compound 9] | 23.69 | 62.46 |  | 

Source: patent US20170298051A1, “ACTIVATOR OF ADIPONECTIN RECEPTOR” (THE UNIVERSITY OF TOKYO, priority 2013, published 2017)
